Among the data in ChEMBL document CHEMBL1146960, “Synthesis and anticancer activity of thiosemicarbazones” (Bioorg Med Chem Lett, 2006) are inhibition and IC50 values, retold here.

Assay [1] concerns SGC-7901. Description: Antitumor activity against SGC7901 cell line at 1 umol/L by SRB method. The following applies: Homo sapiens. The class given is functional.
In assay [2] the test system is SGC-7901. Nature of the assay: Antitumor activity against SGC7901 cell line at 0.1 umol/L by SRB method. It is filed as functional. As to conditions: Homo sapiens. For orientation: In SRB staining, fixed cells bind dye roughly in proportion to their protein.
Assay [3] concerns SGC-7901. Nature of the assay: Antitumor activity against SGC7901 cell line at 50 nmol/L by SRB method. It is filed as functional. As to conditions: Homo sapiens.
The test system of assay [4] is A549. Description: Antitumor activity against A549 cell line at 0.1 umol/L by SRB method. The class given is functional. The following applies: Homo sapiens.
The subject of assay [5] is SGC-7901. Description: Antitumor activity against SGC7901 cell line at 10 umol/L by SRB method. It is filed as functional. As to conditions: Homo sapiens.
Assay [6] concerns P388. Description: Antitumor activity against P388 cell line at 10 umol/L by MTT method. It is filed as functional. The following applies: Mus musculus. In general terms: Formazan colour is commonly taken as a measure of viable cells.
For assay [7], the system named is P388. Description: Antitumor activity against P388 cell line at 1 umol/L by MTT method. The following applies: Mus musculus. It is filed as functional.
Assay [8] has as its system P388. Nature of the assay: Antitumor activity against P388 cell line at 0.1 umol/L by MTT method. The class given is functional. The following applies: Mus musculus.
The subject of assay [9] is A549. Nature of the assay: Antitumor activity against A549 cell line at 10 umol/L by SRB method. The following applies: Homo sapiens. The class given is functional.
Assay [10] relates to A549. Nature of the assay: Antitumor activity against A549 cell line at 1 umol/L by SRB method. The following applies: Homo sapiens. It is filed as functional.
The test system of assay [11] is SGC-7901. Nature of the assay: Antitumor activity against SGC7901 cell line at 25 nmol/L by SRB method. It is filed as functional. The following applies: Homo sapiens.
The subject of assay [12] is SGC-7901. Description: Antitumor activity against SGC7901 cell line at 12.5 nmol/L by SRB method. It is filed as functional. As to conditions: Homo sapiens.
In assay [13] the test system is SGC-7901. Description: Antitumor activity against SGC7901 cell line at 6.25 nmol/L by SRB method. It is filed as functional. The following applies: Homo sapiens.
For assay [14], the system named is SGC-7901. Description: Antitumor activity against SGC7901 cell line by SRB method. The class given is functional, cell-based. The following applies: Homo sapiens.
The subject of assay [15] is SGC-7901. Nature of the assay: Antitumor activity against SGC7901 cell line at 0.01 umol/L by SRB method. The class given is functional. The following applies: Homo sapiens.
Assay [16] deals with SGC-7901. Nature of the assay: Antitumor activity against SGC7901 cell line at 100 umol/L by SRB method. The class given is functional. The following applies: Homo sapiens.
For assay [17], the system named is P388. Nature of the assay: Antitumor activity against P388 cell line at 100 umol/L by MTT method. The class given is functional. The following applies: Mus musculus.
In assay [18] the test system is P388. Description: Antitumor activity against P388 cell line at 0.01 umol/L by MTT method. It is filed as functional. The following applies: Mus musculus.

With `C/C(=N/N=C(\S)N1CCN(c2ccccn2)CC1)c1ncccn1`, the inhibition (commonly the percentage by which the read-out fell short of the control) at 1 µM with SGC-7901 [1] stood at 90%; in the assay on P388 [7], 89.4%; in the assay with A549 [10], 18.5%. For the same compound, the inhibition at 0.1 µM with SGC-7901 [2] is 81.7%; in the assay with A549 [4] it was 12.6%; in the assay with P388 [8], 28.3%. Further, in the assay with SGC-7901 [3], the inhibition at 0.05 µM was 60.1%. Further, the inhibition at 10 µM with SGC-7901 [5] worked out at 90%; in the assay with P388 [6] it was 96.5%; in the assay with A549 [9], 79.3%. Besides, 0.025 µM produced 48.4% inhibition in the assay on SGC-7901 [11]. For the same compound, 0.0125 µM produced 31.7% inhibition in the assay on SGC-7901 [12]. This compound showed an inhibition at 0.00625 µM in the assay with SGC-7901 [13] of 18.4%. Also, the IC50 (in general, the concentration that gives 50% inhibition) with SGC-7901 [14] is 32 nM.

As to `C/C(=N/N=C(\S)Nc1cccc2ccccc12)c1cccs1`, the figures for the inhibition at 1 µM in the assay on SGC-7901 [1] and in the assay with P388 [7] were 13.5% and 7.2%, respectively. The inhibition at 0.1 µM with SGC-7901 [2] came out at 16.5%; in the assay on P388 [8], 0.9%. Further, the inhibition at 0.01 µM with SGC-7901 [15] amounted to 20%; in the assay on P388 [18], 0%. Moreover, the inhibition at 100 µM amounted to 55.9% in the assay with SGC-7901 [16] and 30.3% with P388 [17]. Also, the figures for the inhibition at 10 µM in the assay with SGC-7901 [5] and with P388 [6] were 24.3% and 4.3%, respectively.

For the compound `C/C(=N/N=C(\S)Nc1cccc(Cl)c1)c1cccs1`, the inhibition at 1 µM in the assay on SGC-7901 [1] was 0%; in the assay on P388 [7], 3.7%. Besides, the figures for the inhibition at 0.1 µM in the assay with SGC-7901 [2] and in the assay on P388 [8] were 0% and 8.3%, respectively. The inhibition at 0.01 µM with SGC-7901 [15] and in the assay on P388 [18] was 0% throughout. In addition, the inhibition at 100 µM in the assay on SGC-7901 [16] was 86.8%; in the assay with P388 [17], 51%. In addition, the inhibition at 10 µM was found to be 39.7% in the assay on SGC-7901 [5] and 6.5% with P388 [6].

Take `C/C(=N/N=C(\S)N1CCN(c2ccccn2)CC1)c1cccs1`: the values for the inhibition at 1 µM in the assay with SGC-7901 [1] and in the assay on P388 [7] were 7.2% and 15%, respectively. In addition, the inhibition at 0.1 µM in the assay with SGC-7901 [2] was 1.6%; with P388 [8], 0%. The inhibition at 0.01 µM is 12.8% with SGC-7901 [15] and 0% with P388 [18]. The results for the inhibition at 100 µM in the assay with SGC-7901 [16] and in the assay with P388 [17] were 96.4% and 100%, respectively. The inhibition at 10 µM with SGC-7901 [5] came out at 94.9%; with P388 [6], 0%.

For `C/C(=N/N=C(\S)Nc1ccccc1)c1cccs1`, the inhibition at 1 µM with SGC-7901 [1] is 0%; in the assay on P388 [7] it was 1.6%. For the same compound, the inhibition at 0.1 µM came out at 0% in the assay with SGC-7901 [2] and 6.2% in the assay with P388 [8]. Moreover, the inhibition at 0.01 µM amounted to 0% with SGC-7901 [15] and 8.5% in the assay on P388 [18]. The figures for the inhibition at 100 µM in the assay with SGC-7901 [16] and in the assay with P388 [17] were 39.2% and 48%, respectively. The inhibition at 10 µM worked out at 0% with SGC-7901 [5] and 1.2% in the assay on P388 [6].

With `C/C(=N/N=C(\S)Nc1ccccc1C)c1cccs1`, the inhibition at 1 µM with SGC-7901 [1] was determined as 5.5%; in the assay with P388 [7], 0%. Further, the inhibition at 0.1 µM amounted to 0% in the assay on SGC-7901 [2] and 5.9% with P388 [8]. Also, the values for the inhibition at 0.01 µM with SGC-7901 [15] and in the assay with P388 [18] were 7.1% and 0%, respectively. The inhibition at 100 µM in the assay on SGC-7901 [16] turned out to be 73.5%; in the assay with P388 [17], 91.9%. The inhibition at 10 µM in the assay with SGC-7901 [5] came out at 41.6%; in the assay on P388 [6] it was 1.3%.

For the compound `COc1ccc(N/C(S)=N/N=C(/C)c2cccs2)cc1`, the results for the inhibition at 1 µM in the assay with SGC-7901 [1] and with P388 [7] were 0% and 6.9%, respectively. Besides, the inhibition at 0.1 µM in the assay with SGC-7901 [2] stood at 0%; in the assay on P388 [8], 3.6%. Also, the inhibition at 0.01 µM in the assay on SGC-7901 [15] and in the assay on P388 [18] was 0% throughout. In addition, the results for the inhibition at 100 µM in the assay on SGC-7901 [16] and in the assay with P388 [17] were 65.1% and 25.9%, respectively. The inhibition at 10 µM in the assay on SGC-7901 [5] amounted to 29.2%; with P388 [6] it was 5.2%.
